Measured values: ChEMBL document CHEMBL2331282, “9-[2-(R)-(Phosphonomethoxy)propyl]-2,6-diaminopurine (R)-PMPDAP and its prodrugs: optimized preparation, including identification of by-products formed, and antiviral evaluation in vitro” (Bioorg Med Chem, 2013)

Test system: Vaccinia virus
Assay: Antiviral activity against Vaccinia virus infected in human HEL cells assessed as reduction of virus-induced cytopathogenicity
Type: functional, organism-based
Conditions: Orthopoxvirus vaccinia

Compound | EC50 [µg/mL]
C[C@@H](O)CNc1nc(N)nc2c1ncn2C[C@@H](C)O | > 100
C[C@@H](O)CNc1nc(N)c2ncn(C[C@@H](C)O)c2n1 | > 100
C[C@H](Cn1cnc2c(NCP(=O)(O)O)nc(N)nc21)OCP(=O)(O)O | > 100
